Laboratory results from ChEMBL document CHEMBL1201862, “PubChem BioAssay data set” (2004).
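Test compounds were applied to cells in 96-well plates for 48 hours at 5 doses. The concentration for 50% growth inhibition is given as GI50.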 Calls of active or inactive are those of the source. Rule as the data show it: active = GI50 up to about 1.1 µM and inactive = higher.

Experiments:
Assay in all cases: NCI anticancer screen, dose series, 48 h
SNB-75 = tested on: SNB-75
MCF7 = tested on: MCF7
A549 = tested on: A549
RPMI-8226 = tested on: RPMI-8226
UO-31 = tested on: UO-31
CAKI-1 = tested on: CAKI-1
DU-145 = tested on: DU-145
CCRF-CEM = tested on: CCRF-CEM
SK-MEL-5 = tested on: SK-MEL-5
NCI/ADR-RES = tested on: NCI/ADR-RES
HCC 2998 = tested on: HCC 2998
M14 = tested on: M14
HCT-116 = tested on: HCT-116
SK-MEL-28 = tested on: SK-MEL-28
A498 = tested on: A498
SR = tested on: SR
MDA-MB-231 = tested on: MDA-MB-231
MDA-MB-435 = tested on: MDA-MB-435
OVCAR-4 = tested on: OVCAR-4
SK-MEL-2 = tested on: SK-MEL-2

SMILES	GI50 (SNB-75)	GI50 (MCF7)	GI50 (A549)	GI50 (RPMI-8226)	GI50 (UO-31)	GI50 (CAKI-1)	GI50 (DU-145)	GI50 (CCRF-CEM)	GI50 (SK-MEL-5)	GI50 (NCI/ADR-RES)	GI50 (HCC 2998)	GI50 (M14)	GI50 (HCT-116)	GI50 (SK-MEL-28)	GI50 (A498)	GI50 (SR)	GI50 (MDA-MB-231)	GI50 (MDA-MB-435)	GI50 (OVCAR-4)	GI50 (SK-MEL-2)
CC(C)/C(Cl)=N\OC(NC(=O)P(=O)(c1ccccc1)c1ccccc1)(C(F)(F)F)C(F)(F)F	< 0.01 µM (active)	13.3 µM (inactive)	5.15 µM (inactive)	10.3 µM (inactive)	7.05 µM (inactive)	23.7 µM (inactive)	11.1 µM (inactive)	5.01 µM (inactive)	13.8 µM (inactive)	12.8 µM (inactive)	14.8 µM (inactive)	4.14 µM (inactive)	9.16 µM (inactive)	14.9 µM (inactive)	14.9 µM (inactive)	14.7 µM (inactive)	16 µM (inactive)	16.3 µM (inactive)	5 µM (inactive)	
CC1=C(C)CC2C(=O)N(c3cc(C(C)(C)C)ccc3C(C)(C)C)C(=O)C2C1 (centres undefined)	22.3 µM (inactive)	0.776 µM (active)	69.5 µM (inactive)	> 100 µM (inactive)	> 100 µM (inactive)	> 100 µM (inactive)	> 100 µM (inactive)	> 100 µM (inactive)	> 100 µM (inactive)	> 100 µM (inactive)	52.6 µM (inactive)	52.1 µM (inactive)	50 µM (inactive)	> 100 µM (inactive)		> 100 µM (inactive)	> 100 µM (inactive)	> 100 µM (inactive)	> 100 µM (inactive)	> 100 µM (inactive)
COc1ccc(C)cc1N1C(=O)C2ON(Cc3ccc(CC(N)=O)cc3)C(c3c4ccccc4c(Cl)c4ccccc34)C2C1=O (centres undefined)	12.4 µM (inactive)	26.4 µM (inactive)	55.2 µM (inactive)		25.7 µM (inactive)	25.8 µM (inactive)	22.6 µM (inactive)	21.5 µM (inactive)		26.1 µM (inactive)		19.3 µM (inactive)	15.1 µM (inactive)	44.1 µM (inactive)		12.8 µM (inactive)	19.9 µM (inactive)	21.9 µM (inactive)	24.3 µM (inactive)	21.1 µM (inactive)
O=C(/C=C/c1ccc(O)c(O)c1)OCCOC(=O)/C=C/c1ccc(O)c(O)c1		34.5 µM (inactive)	32.1 µM (inactive)	36.2 µM (inactive)	23.2 µM (inactive)	39.4 µM (inactive)	24.7 µM (inactive)	33.1 µM (inactive)	18.2 µM (inactive)	39.8 µM (inactive)	31.8 µM (inactive)	14.7 µM (inactive)	21.1 µM (inactive)	36.4 µM (inactive)	39.5 µM (inactive)	22.6 µM (inactive)	38 µM (inactive)	31.3 µM (inactive)	39.1 µM (inactive)	22.1 µM (inactive)
CC(C)[C@H]1NC(=O)[C@H]2N=C(S[C@H]2C)[C@@H]2CCCN2C(=O)[C@H](Cc2ccccc2)NC(=O)[C@@H]2CSC(=N2)[C@@H](Cc2ccccc2)NC(=O)[C@@H]2CSC1=N2		19.1 µM (inactive)	17.3 µM (inactive)	7.62 µM (inactive)	21.8 µM (inactive)	> 50 µM (inactive)	> 50 µM (inactive)	12.3 µM (inactive)	24.4 µM (inactive)	19.7 µM (inactive)	10.7 µM (inactive)	25.7 µM (inactive)	30.9 µM (inactive)	14.1 µM (inactive)	19.2 µM (inactive)	5.65 µM (inactive)	> 50 µM (inactive)	13.7 µM (inactive)	10.9 µM (inactive)	18.3 µM (inactive)
CCOc1ccc(C(c2c(O)c3ccccc3oc2=O)c2c(O)c3ccccc3oc2=O)cc1		46.6 µM (inactive)	69.8 µM (inactive)	32.2 µM (inactive)	20.5 µM (inactive)	93.8 µM (inactive)	> 100 µM (inactive)	27 µM (inactive)	44.5 µM (inactive)	98.6 µM (inactive)		42.3 µM (inactive)	48.4 µM (inactive)	80 µM (inactive)	36.1 µM (inactive)	26 µM (inactive)	58.5 µM (inactive)	70.3 µM (inactive)	> 100 µM (inactive)	24.1 µM (inactive)
COC(=O)C1=C(C(=O)OC)C2(/N=C(\Nc3ccccc3)c3ccccc3)N(c3ccc(OC)cc3)CC(c3ccccc3)N2O1 (centres undefined)	32.3 µM (inactive)	> 100 µM (inactive)	> 100 µM (inactive)		> 100 µM (inactive)	> 100 µM (inactive)	> 100 µM (inactive)	> 100 µM (inactive)	> 100 µM (inactive)	> 100 µM (inactive)		> 100 µM (inactive)	> 100 µM (inactive)	> 100 µM (inactive)	> 100 µM (inactive)	> 100 µM (inactive)	> 100 µM (inactive)	> 100 µM (inactive)	> 100 µM (inactive)	> 100 µM (inactive)
CCOC(=O)Nn1c(CC#N)nnc1Cc1ccccc1	> 100 µM (inactive)	> 100 µM (inactive)	> 100 µM (inactive)	> 100 µM (inactive)	> 100 µM (inactive)	> 100 µM (inactive)	> 100 µM (inactive)		> 100 µM (inactive)	> 100 µM (inactive)	> 100 µM (inactive)	> 100 µM (inactive)	> 100 µM (inactive)	> 100 µM (inactive)		> 100 µM (inactive)	> 100 µM (inactive)	> 100 µM (inactive)		> 100 µM (inactive)
COC(=O)c1ccc(/C=N/c2cc(C)nn2-c2ccccc2)cc1	21.1 µM (inactive)	15.1 µM (inactive)	76.6 µM (inactive)	20.4 µM (inactive)	> 100 µM (inactive)	93.1 µM (inactive)	41 µM (inactive)	29.2 µM (inactive)	19.4 µM (inactive)	49.3 µM (inactive)	2.79 µM (inactive)	22.5 µM (inactive)	29 µM (inactive)	82.2 µM (inactive)		19.2 µM (inactive)	> 100 µM (inactive)	8.65 µM (inactive)	38.6 µM (inactive)	49 µM (inactive)
CC(C)(C)c1ccc(O)c(CN(Cc2c(O)ccc3ccccc23)C2CCCCC2)c1	16 µM (inactive)	17.1 µM (inactive)	18.5 µM (inactive)	26.6 µM (inactive)	14.7 µM (inactive)	15.2 µM (inactive)	23.8 µM (inactive)	13.9 µM (inactive)	16.5 µM (inactive)	16.3 µM (inactive)		12.6 µM (inactive)	16.9 µM (inactive)	20.5 µM (inactive)	19.5 µM (inactive)	16 µM (inactive)	16.8 µM (inactive)	19.2 µM (inactive)	20.7 µM (inactive)	16.7 µM (inactive)
Cc1nc2c(O)nc3ccccc3c2o1	> 100 µM (inactive)	> 100 µM (inactive)	> 100 µM (inactive)	> 100 µM (inactive)	> 100 µM (inactive)	> 100 µM (inactive)	> 100 µM (inactive)	> 100 µM (inactive)	> 100 µM (inactive)	> 100 µM (inactive)	> 100 µM (inactive)	> 100 µM (inactive)	> 100 µM (inactive)	> 100 µM (inactive)	> 100 µM (inactive)		> 100 µM (inactive)	> 100 µM (inactive)	> 100 µM (inactive)	> 100 µM (inactive)
COc1ccc(N/N=C2\CCOc3ccc(C)cc3C2=O)cc1		14.4 µM (inactive)	21.3 µM (inactive)	25.5 µM (inactive)	24 µM (inactive)	27.9 µM (inactive)	51.3 µM (inactive)	16.3 µM (inactive)	19.1 µM (inactive)	9.4 µM (inactive)	13.6 µM (inactive)	26.9 µM (inactive)	19.5 µM (inactive)	32.3 µM (inactive)	59.8 µM (inactive)	15.6 µM (inactive)	14.4 µM (inactive)	3.18 µM (inactive)	14.5 µM (inactive)	16.8 µM (inactive)
CC(=O)OCCn1cnc2c(NCC=C(C)C)ncnc21	> 100 µM (inactive)	> 100 µM (inactive)	> 100 µM (inactive)	> 100 µM (inactive)	> 100 µM (inactive)	> 100 µM (inactive)	> 100 µM (inactive)	> 100 µM (inactive)	> 100 µM (inactive)	> 100 µM (inactive)		> 100 µM (inactive)	> 100 µM (inactive)	> 100 µM (inactive)	> 100 µM (inactive)	> 100 µM (inactive)	> 100 µM (inactive)	> 100 µM (inactive)	> 100 µM (inactive)	
O=NNc1cnc(O)nc1O	8.75 µM (inactive)	> 100 µM (inactive)	> 100 µM (inactive)	> 100 µM (inactive)	> 100 µM (inactive)	> 100 µM (inactive)	> 100 µM (inactive)	> 100 µM (inactive)	> 100 µM (inactive)	> 100 µM (inactive)	> 100 µM (inactive)	> 100 µM (inactive)	> 100 µM (inactive)	> 100 µM (inactive)	92.7 µM (inactive)		> 100 µM (inactive)	> 100 µM (inactive)	> 100 µM (inactive)	> 100 µM (inactive)
CC1(C)C[C@H](O)[C@H](O)[C@]23C(=O)O[C@H](O)[C@H]2C(C=O)=CC[C@@H]13	> 100 µM (inactive)	> 100 µM (inactive)	> 100 µM (inactive)	> 100 µM (inactive)	> 100 µM (inactive)	> 100 µM (inactive)	> 100 µM (inactive)	> 100 µM (inactive)	> 100 µM (inactive)	> 100 µM (inactive)	> 100 µM (inactive)		> 100 µM (inactive)	> 100 µM (inactive)		> 100 µM (inactive)	> 100 µM (inactive)	> 100 µM (inactive)		
